Where two headings read alike, the source gives them in different places.
What was measured:
S. pneumoniae = assay: MIC, broth micro-dilution (CLSI); type: cell-based, Streptococcus pneumoniae; settings: for MIC / MIC50 / MIC90: Streptococcus pneumoniae
S. aureus = assay: MIC, broth micro-dilution (CLSI); type: cell-based, Staphylococcus aureus; settings: for MIC / MIC50 / MIC90: Staphylococcus aureus
[1] = Microsomal metabolic stability; type: in vitro ADME; settings: pH 7.4; for microsomal CLint at 0.4 μg/ml / half-life at 0.4 μg/ml: microsomes; for half-life at 0.4 μg/ml: 0.4 μg/ml compound, 0.4 mg/ml protein, NADPH
Experimental: The metabolic stability assay was performed by incubating 0.4 μg/ml of each test compound with human and mouse liver microsomes (Xenotech, Lot# 1210057 and 1310211, respectively) suspended in 0.1 M pH 7.4 phosphate buffer at 37°C and 0.4 mg/ml protein concentration. The metabolic reaction was initiated by the addition of an NADPH-regenerating system (i.e. NADPH is the cofactor required for CYP450-mediated metabolism) and quenched at various time points over a 60 min incubation period by the addition of acetonitrile containing diazepam as internal standard. Control samples (containing no NADPH) were included (and quenched at 2, 30 and 60 min) to monitor for potential degradation in the absence of cofactor. Test compound concentration vs time data were fitted to an exponential decay function to determine the first-order rate constant for substrate depletion. This was used to calculate a degradation half-life (T1/2), in vitro intrinsic clearance (CLINT), microsome-predicted blood clearance (CLblood) and a microsome-predicted hepatic extraction ratio (EH) according to the in vitro half-life method of Obach[53].

human red blood cells = assay: Haemolysis assay; type: cell-based; settings: 1 h, 37°C; highest concentration used 128 μg/ml
Experimental: This was performed using fresh donor human red blood cells (RBCs), essentially as described previously. Fresh RBCs were washed in PBS three times at 500 × g for 5 min, and then resuspended 1% (w/v) in PBS. […] Thereafter, 198 μL of the 1% RBC solution was added into each well, and the mixture incubated for 1 h at 37°C, with shaking at 100 rpm. Quadruplicate wells containing either 1% Triton X100, or PBS only, served as controls. After incubation, the trays were centrifuged at 1,000 × g for 3 min and 100 μl of supernatant from each well transferred into a new 96-well tray. Absorbance was measured at A450 nm on a Multiskan Ascent 354 Spectrophotometer (Labsystems) and plotted against each dilution. Haemolytic titer was determined as the reciprocal of the dilution at which 50% of erythrocytes were lysed at A450 nm. The experiment was performed twice.

Hep G2 = assay: In vitro cytotoxicity, WST-1; type: cell-based; settings: Homo sapiens, HepG2; 24 h exposure; read-out: IC50 values ± SEM
Source text: (§1) In order to ensure minimal off target mammalian cell cytotoxicity, we assayed NCL812, NCL195 and NCL219 for in vitro cytotoxicity using a panel of adherent mammalian cell lines: Caco-2 (human colorectal adenocarcinoma cell line), HEL 299 (non-cancerous human lung fibroblast cell line), Hep G2 (human hepatocellular carcinoma cell line), MDBK (normal bovine kidney cell line) and MCF7 (human mammary gland adenocarcinoma cell line). Cell lines were maintained in Dulbecco’s Modified Eagle’s Medium (DMEM; […] After 24 h incubation, media was removed, washed once with medium without antibiotics and fresh medium supplemented with 10% (vol/vol) FBS was added. […] Following exposure for 24 h, WST-1 reagent was added to each well at a final concentration of 10%. […] The IC50 value for each compound against each cell line was determined via non-linear regression (three parameters) using GraphPad Prism v6 software. The robustness of assays was confirmed with selected cell lines (Hep G2 and MDBK) seeded onto a 96–well Microwell Nunclon Delta Surface plate (Thermo Scientific Nunc; Cat No: 136101) at 5 × 10^4 cells per well.

MDBK = assay: Real-time cell viability, RealTime-Glo MT; type: cell-based, bovine; settings: 2 or 8 μg/ml, up to 20 h post-treatment
Source text: as §1

[2] = test system: panel of mammalian cell lines (Caco-2, HEL 299, Hep G2, MDBK, MCF7); assay: In vitro cytotoxicity, WST-1, all cell lines tested; type: cell-based; settings: lower bound over all the cell lines tested
Source text: as §1

[3] = S2 Table isolates, absence of FBS

Cl.N=C(NN=Cc1ccc(Cl)cc1)NN=Cc1ccc(Cl)cc1 [NCL812, 2,2'-bis[(4-chlorophenyl)methylene] carbonimidic dihydrazide hydrochloride]
4 µg/mL: MIC (S. pneumoniae; A66.1 (serotype 3), 5% FBS) | MIC (S. pneumoniae; A66.1 (serotype 3), 10% FBS) | MIC (S. pneumoniae; ATCC6303, ATCC 6303 (serotype 3), 5% FBS + 3% washed RBC) | MIC (S. pneumoniae; ATCC6303, ATCC 6303 (serotype 3), 10% FBS + 3% washed RBC) | MIC (S. pneumoniae; L82016 (serotype 6B), 5% FBS) | MIC (S. pneumoniae; L82016 (serotype 6B), 10% FBS) | MIC (S. pneumoniae; P9 (serotype 6A), 5% FBS) | MIC (S. pneumoniae; P9 (serotype 6A), 10% FBS) | MIC (S. pneumoniae; P21 (serotype 3), 5% FBS) | MIC (S. pneumoniae; P21 (serotype 3), 10% FBS) | MIC50 (S. pneumoniae; S1 Table isolates, 5% FBS) | MIC50 (S. pneumoniae; S1 Table isolates, 10% FBS) | MIC (S. pneumoniae; TIGR4 (serotype 4), 5% FBS) | MIC (S. pneumoniae; TIGR4 (serotype 4), 10% FBS) | MIC (S. pneumoniae; WCH16 (serotype 6A), 5% FBS) | MIC (S. pneumoniae; WCH43 (serotype 4), 5% FBS) | MIC (S. pneumoniae; WCH43 (serotype 4), 10% FBS) | MIC (S. pneumoniae; WCH46 (serotype 4), 5% FBS) | MIC (S. pneumoniae; WCH46 (serotype 4), 10% FBS) | MIC (S. pneumoniae; WCH57 (serotype 8), 5% FBS) | MIC (S. pneumoniae; WCH57 (serotype 8), 10% FBS) | MIC (S. pneumoniae; WCH77 (serotype 5), 5% FBS) | MIC (S. pneumoniae; WCH86 (serotype 4), 5% FBS) | MIC (S. pneumoniae; WCH89 (serotype 7), 5% FBS) | MIC (S. pneumoniae; WCH92 (serotype 4), 5% FBS) | MIC (S. pneumoniae; WCH92 (serotype 4), 10% FBS) | MIC (S. pneumoniae; WCH137 (serotype 6A), 5% FBS) | MIC (S. pneumoniae; WCH137 (serotype 6A), 10% FBS) | MIC (S. pneumoniae; WCH158 (serotype 19F), 5% FBS) | MIC (S. pneumoniae; WCH158 (serotype 19F), 10% FBS) | MIC (S. pneumoniae; WCH184 (serotype 19F), 5% FBS) | MIC (S. pneumoniae; WCH184 (serotype 19F), 10% FBS) | MIC (S. pneumoniae; WCH211 (serotype 11), 5% FBS) | MIC (S. pneumoniae; WCH211 (serotype 11), 10% FBS) | MIC (S. aureus; ATCC 12600 / MSSA, ATCC12600 [Xen29] (MSSA), absence of FBS) | MIC (S. aureus; ATCC 29213 / MSSA, ATCC29213 MSSA (ST5), absence of FBS, read-out: MIC) | MIC (S. aureus; MRSA, WA2–CA-MRSA (ST78), absence of FBS) | MIC (S. aureus; MRSA, WA84–CA-MRSA (ST45), absence of FBS) | MIC90 (S. aureus; [3]) | MIC (S. aureus; UK 15 PVL+ – HA-EMRSA (ST22), absence of FBS, read-out: MIC) | MIC (S. aureus; UK 15 – HA-EMRSA (ST22), absence of FBS, read-out: MIC) | MIC (S. aureus; UK 16 – HA- EMRSA (ST36), absence of FBS, read-out: MIC)
4 to 8 µg/mL: MIC range (S. pneumoniae; S1 Table isolates, 5% FBS + 3% washed RBC)
<5 mL/min/kg: Predicted CLblood ([1]; human, 0.4 μg/ml)
32 µg/mL: MIC range (S. aureus; S2 Table isolates, 10% FBS) | MIC (S. aureus; ATCC 12600 / MSSA, ATCC12600 [Xen29] (MSSA), 10% FBS) | MIC (S. aureus; ATCC 29213 / MSSA, ATCC29213 MSSA (ST5), 10% FBS, read-out: MIC) | MIC (S. aureus; ATCC 49775 / MSSA, ATCC 49775 (MSSA), 10% FBS, read-out: MIC) | MIC (S. aureus; IRISH 1 – HA-EMRSA (ST8), 10% FBS, read-out: MIC) | MIC (S. aureus; IRISH 2 – HA-EMRSA (ST8), 10% FBS, read-out: MIC) | MIC (S. aureus; MRSA / USA300, USA 300 - MRSA (ST8), 10% FBS, read-out: MIC) | MIC (S. aureus; MRSA, AUS2-MRSA (ST239), 10% FBS, read-out: MIC) | MIC (S. aureus; MRSA, AUS3-MRSA (ST239), 10% FBS, read-out: MIC) | MIC (S. aureus; MRSA, BENGAL BAY PVL+ – CA-MRSA (ST772), 10% FBS, read-out: MIC) | MIC (S. aureus; MRSA, Classic–HA-MRSA (ST250), 10% FBS, read-out: MIC) | MIC (S. aureus; MRSA, NY JAPAN – HA MRSA (ST5), 10% FBS, read-out: MIC) | MIC (S. aureus; MRSA, QLD PVL+ –CA-MRSA (ST93), 10% FBS, read-out: MIC) | MIC (S. aureus; MRSA, ST398–CA-MRSA-V (ST398), 10% FBS, read-out: MIC) | MIC50 (S. aureus; S2 Table isolates, 10% FBS) | MIC90 (S. aureus; S2 Table isolates, 10% FBS) | MIC (S. aureus; TAIWAN PVL+ – CA-cMRSA (ST59), 10% FBS, read-out: MIC) | MIC (S. aureus; UK 15 PVL+ – HA-EMRSA (ST22), 10% FBS, read-out: MIC) | MIC (S. aureus; UK 15 – HA-EMRSA (ST22), 10% FBS, read-out: MIC) | MIC (S. aureus; UK 16 – HA- EMRSA (ST36), 10% FBS, read-out: MIC) | MIC (S. aureus; UK 17 – HA-EMRSA (ST247), 10% FBS, read-out: MIC)
4-8 fold: Fold increase of MIC range in the presence of 10% FBS (S. aureus; 10% FBS versus no FBS)
24 µg/mL: 50% haemolysis titre (HC50) (human red blood cells)
2 µg/mL: MIC (S. pneumoniae; WCH77 (serotype 5), 10% FBS) | MIC (S. aureus; ATCC 49775 / MSSA, ATCC 49775 (MSSA), absence of FBS, read-out: MIC) | MIC (S. aureus; IRISH 1 – HA-EMRSA (ST8), absence of FBS, read-out: MIC) | MIC (S. aureus; IRISH 2 – HA-EMRSA (ST8), absence of FBS, read-out: MIC) | MIC (S. aureus; MRSA / USA300, USA 300 - MRSA (ST8), absence of FBS, read-out: MIC) | MIC (S. aureus; MRSA, AUS2-MRSA (ST239), absence of FBS, read-out: MIC) | MIC (S. aureus; MRSA, AUS3-MRSA (ST239), absence of FBS, read-out: MIC) | MIC (S. aureus; MRSA, BENGAL BAY PVL+ – CA-MRSA (ST772), absence of FBS, read-out: MIC) | MIC (S. aureus; MRSA, Classic–HA-MRSA (ST250), absence of FBS, read-out: MIC) | MIC (S. aureus; MRSA, NY JAPAN – HA MRSA (ST5), absence of FBS, read-out: MIC) | MIC (S. aureus; MRSA, QLD PVL+ –CA-MRSA (ST93), absence of FBS, read-out: MIC) | MIC (S. aureus; MRSA, ST398–CA-MRSA-V (ST398), absence of FBS, read-out: MIC) | MIC (S. aureus; MRSA, WSPP – PVL neg CA MRSA (ST30), absence of FBS, read-out: MIC) | MIC50 (S. aureus; [3]) | MIC (S. aureus; TAIWAN PVL+ – CA-cMRSA (ST59), absence of FBS, read-out: MIC) | MIC (S. aureus; UK 17 – HA-EMRSA (ST247), absence of FBS, read-out: MIC)
<0.13: Predicted EH ([1]; mouse, 0.4 μg/ml)
affected viability at 8 μg/ml: Effect on cell viability (real-time) (MDBK)
> 4.12 h: half-life at 0.4 μg/ml ([1]; human) | half-life at 0.4 μg/ml ([1]; mouse)
9.4 ± 0.1 µg/mL: IC50 (Hep G2)
8 µg/mL: MIC (S. pneumoniae; D39/D39LUX (serotype 2), 5% FBS) | MIC (S. pneumoniae; D39/D39LUX (serotype 2), 10% FBS) | MIC (S. pneumoniae; EF3030 (serotype 19F), 5% FBS) | MIC (S. pneumoniae; EF3030 (serotype 19F), 10% FBS) | MIC90 (S. pneumoniae; S1 Table isolates, 5% FBS) | MIC90 (S. pneumoniae; S1 Table isolates, 10% FBS) | MIC (S. pneumoniae; WCH16 (serotype 6A), 10% FBS) | MIC (S. pneumoniae; WCH86 (serotype 4), 10% FBS) | MIC (S. pneumoniae; WCH89 (serotype 7), 10% FBS) | MIC (S. pneumoniae; WU2 (serotype 3), 5% FBS) | MIC (S. pneumoniae; WU2 (serotype 3), 10% FBS)
<16 mL/min/kg: Predicted CLblood ([1]; mouse, 0.4 μg/ml)
< 7 µL/min/mg: microsomal CLint at 0.4 μg/ml ([1]; human) | microsomal CLint at 0.4 μg/ml ([1]; mouse)
> 4 µg/mL: IC50 [2]
2 to 8 µg/mL: MIC range (S. pneumoniae; 21 isolates) | MIC range (S. pneumoniae; S1 Table isolates, 10% FBS + 3% washed RBC) | MIC range (S. aureus; 23 isolates) | MIC range (S. aureus; [3])

Reference: PMC5584945, “Evaluation of robenidine analog NCL195 as a novel broad-spectrum antibacterial agent” (PLoS ONE, 2017)
